Measurements from patent US8937072B2, “Substituted cyanoaniline compounds, preparation and use thereof” (Sinochem Corporation, priority 2011, dated 2015).
Read-outs that look alike come from different tables or passages of the source.

Assays:
rice blast = assay: microbe, parasite or virus in culture; assay type: cell-based; conditions: for inhibition at 0.03 µg/mL: read-out: the inhibition rate against rice blast (%) 0.03 mg/L; for inhibition at 0.1 µg/mL: read-out: the inhibition rate against rice blast (%) 0.1 mg/L
cucumber gray mold = assay: Activity in vitro (96-well, High Through Put): inhibition rate against cucumber gray mold; assay type: cell-based; conditions: for inhibition at 25 µg/mL: dose 25 mg/L
How it was run: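 Scored visually at 24 hours relative to control, the readout is pathogen germination or growth. Test solutions used acetone, methanol or DMF as solvent and were mixed with pathogen suspension in a sterile high-throughput format at constant temperature.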

cucumber downy mildew = assay: Protectant activity in vivo (whole plant) against cucumber downy mildew; conditions: Cucumis sativus, 168 h; for pest or weed control at 12.5 µg/mL: 12.5 mg/L; for pest or weed control at 400 µg/mL: dose 400 mg/L
How it was run: (§1)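 Whole plants sprayed with test solution, water plus 0.1% Tween-80 and no more than 5% solvent, then inoculated with the pathogen after 24 h. Plants held in humidity chamber or directly in greenhouse depending on fungus. Disease control scored by eye at about 7 days.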

corn rust = assay: Protectant activity in vivo (whole plant) against corn rust; conditions: for pest or weed control at 6.25 µg/mL / pest or weed control at 25 µg/mL / pest or weed control at 400 µg/mL / pest or weed control at 100 µg/mL: Zea mays, 168 h
How it was run: as §1

wheat powdery mildew = assay: Protectant activity in vivo (whole plant) against wheat powdery mildew; conditions: dose 400 mg/L; for pest or weed control at 400 µg/mL: Triticum aestivum, 168 h
Description: The method is as followed: The whole plant is used in this test. The compound is dissolved in a proper solvent to get mother solution. The proper solvent is selected from acetone, methanol, DMF and so on according to their dissolving capability to the sample. The volume rate of solvent and testing solution (v/v) is equal to or less than 5%. The mother solution is diluted with water containing 0.1% tween-80 to get the testing solution whose concentration is designed. The testing solution is sprayed to the host plant by a special plant sprayer. The plant is inoculated with fungus after 24 hours. According to the infecting characteristic of fungus, the plant is stored in a humidity chamber and then transferred into greenhouse after infection is finished. And the other plants are placed in greenhouse directly. The activity of compound is obtained by eyeballing after 7 days in common.

blast of rice = conditions: at 500 ppm; cited from earlier work
canker of citrus fruit = conditions: at 500 ppm; cited from earlier work
[1] = Pyricularia oryzae, read-out: the inhibition rate against rice blast (%) 0.3 mg/L
[2] = 0.9 mg/L, read-out: the inhibition rate against cucumber gray mold (%)
[3] = 25 mg/L, read-out: the protectant activity (%) against cucumber downy mildew
[4] = dose 25 mg/L, read-out: protectant activity against cucumber downy mildew in vivo
[5] = dose 400 mg/L, read-out: protectant activity against corn rust in vivo
[6] = Pyricularia oryzae, read-out: inhibition rate against rice blast
[7] = 2.8 mg/L, read-out: the inhibition rate against cucumber gray mold (%)
[8] = 8.3 mg/L, read-out: the inhibition rate against cucumber gray mold (%)
[9] = 50 mg/L, read-out: the protectant activity (%) against cucumber downy mildew
[10] = 100 mg/L, read-out: the protectant activity (%) against cucumber downy mildew
[11] = 400 mg/L, read-out: the protectant activity (%) against corn rust
[12] = in vitro, dose 2.8 mg/L, read-out: inhibition rate against cucumber gray mold

| Structure (SMILES) | inhibition at 0.03 µg/mL (rice blast; Pyricularia oryzae) [%] | inhibition at 0.1 µg/mL (rice blast; Pyricularia oryzae) [%] | inhibition at 0.3 µg/mL (rice blast; [1]) [%] | inhibition at 0.3 µg/mL (cucumber gray mold; 0.3 mg/L) [%] | inhibition at 0.9 µg/mL (cucumber gray mold; [2]) [%] | inhibition at 25 µg/mL (cucumber gray mold; in vitro) [%] | pest or weed control at 12.5 µg/mL (cucumber downy mildew) [%] | pest or weed control at 25 µg/mL (cucumber downy mildew; [3]) [%] | pest or weed control at 6.25 µg/mL (corn rust; 6.25 mg/L) [%] | pest or weed control at 25 µg/mL (corn rust; 25 mg/L) [%] | pest or weed control at 400 µg/mL (corn rust; [5]) [%] | pest or weed control at 400 µg/mL (wheat powdery mildew) [%] | inhibition at 25 µg/mL (rice blast; [6]) [%] | inhibition at 2.8 µg/mL (cucumber gray mold; [7]) [%] | inhibition at 8.3 µg/mL (cucumber gray mold; [8]) [%] | pest or weed control at 50 µg/mL (cucumber downy mildew; [9]) [%] | pest or weed control at 100 µg/mL (cucumber downy mildew; [10]) [%] | pest or weed control at 400 µg/mL (cucumber downy mildew) [%] | pest or weed control at 100 µg/mL (corn rust; 100 mg/L) [%] | pest or weed control at 400 µg/mL (corn rust; [11]) [%] | also measured |
| --- | --- | --- | --- | --- | --- | --- | --- | --- | --- | --- | --- | --- | --- | --- | --- | --- | --- | --- | --- | --- | --- |
| N#Cc1c(Cl)c(Cl)c(Nc2ccc([N+](=O)[O-])cc2)c(C#N)c1Cl [KC5] | 0 | 0 | 0 | 0 | 0 | 0 | 0 | 0 | 0 | 0 | 0 | 0 |  |  |  |  |  |  |  |  | pest or weed control at 25 µg/mL (cucumber downy mildew; [4]): 0%; pest or weed control at 50 µg/mL (cucumber downy mildew; dose 50 mg/L, read-out: protectant activity against cucumber downy mildew in vivo): 20% |
| N#Cc1c(Cl)c(Cl)c(C#N)c(Cl)c1Cl [STM-1] | 0 | 0 | 0 | 0 | 0 | 0 | 0 | 0 | 0 | 0 | 0 | 0 | 0 | 0 | 0 | 0 | 0 | 0 | 0 | 0 |  |
| Cc1ccc(Nc2c(Cl)c(Cl)c(C#N)c(Cl)c2C#N)cc1 [KC3] | 0 | 0 | 0 | 0 | 0 | 0 | 0 | 0 | 0 | 0 | 0 | 0 | 0 | 0 | 0 | 0 | 0 | 0 | 0 | 0 |  |
| N#Cc1ccc(Nc2c(Cl)c(F)c(C#N)c(F)c2C#N)cc1 [KC21] | 0 | 0 | 0 | 0 | 0 | 0 |  |  |  |  |  | 0 | 0 | 0 | 0 |  | 70 |  |  | 80 |  |
| N#Cc1c(Cl)c(Cl)c(Nc2ccc(Cl)cc2)c(C#N)c1Cl [KC2] | 0 | 0 | 0 | 0 | 0 | 0 | 0 | 0 | 0 | 0 | 0 | 0 | 0 | 0 | 0 | 0 | 0 | 0 | 0 | 0 |  |
| Cc1cc(Nc2c(Cl)c(Cl)c(C#N)c(Cl)c2C#N)c(C)cc1Cl [KC6] | 0 | 0 | 0 | 0 | 0 | 0 |  |  | 0 | 0 | 0 | 0 |  |  |  |  |  |  | 0 | 0 | inhibition at 0.3 µg/mL (rice blast; [6]): 0% |
| N#Cc1c(Cl)c(Cl)c(Nc2cc(Cl)c(C(F)(F)F)cc2Cl)c(C#N)c1Cl [Compound B-52] |  |  |  |  |  |  |  |  |  |  |  |  |  |  |  |  |  |  |  |  | the inhibition rate against rice blast (%) 0.03 mg/L (rice blast; Table 21, 0.03 mg/L): 100%; the inhibition rate against rice blast (%) 0.1 mg/L (rice blast; Table 21, 0.1 mg/L): 100%; the inhibition rate against rice blast (%) 0.3 mg/L (rice blast; Table 21, 0.3 mg/L): 100%; the inhibition rate against cucumber gray mold (%) (cucumber gray mold; 0.3 mg/L): 0%; the inhibition rate against cucumber gray mold (%) (cucumber gray mold; 0.9 mg/L): 100%; the inhibition rate against cucumber gray mold (%) (cucumber gray mold; 2.8 mg/L): 100%; the inhibition rate against cucumber gray mold (%) (cucumber gray mold; 8.3 mg/L): 100%; the protectant activity (%) against corn rust (corn rust; 6.25 mg/L): 70%; the protectant activity (%) against corn rust (corn rust; 25 mg/L): 98%; the protectant activity (%) against corn rust (corn rust; 100 mg/L): 100%; the protectant activity (%) against corn rust (corn rust; 400 mg/L): 100%; protectant activity against corn rust in vivo (corn rust; dose 100 mg/L): 100%; protectant activity against corn rust in vivo (corn rust; dose 400 mg/L): 100%; protectant activity against wheat powdery mildew in vivo (wheat powdery mildew): 100% |
| N#Cc1c(F)c(F)c(Nc2ccc(Cl)c(Cl)c2)c(C#N)c1F [KC12] | 0 | 0 | 0 | 0 | 0 |  | 0 | 0 | 0 | 0 | 0 | 0 | 0 | 0 | 80 | 0 | 0 |  | 0 | 0 | inhibition at 2.8 µg/mL (cucumber gray mold; [12]): 0%; pest or weed control at 100 µg/mL (cucumber downy mildew; dose 100 mg/L, read-out: protectant activity against cucumber downy mildew in vivo): 20%; bacteriostatic diameter against blast of rice (blast of rice): 15.5 mm; bacteriostatic diameter against canker of citrus fruit (canker of citrus fruit): 0 mm |
| COc1ccc(Nc2c(Cl)c(Cl)c(C#N)c(Cl)c2C#N)cc1 [KC4] | 0 | 0 | 0 | 0 | 0 |  |  |  | 0 | 0 | 0 | 0 |  | 50 | 100 |  |  |  | 0 | 0 | inhibition at 0.9 µg/mL (rice blast; [6]): 0%; inhibition at 0.9 µg/mL (cucumber gray mold; in vitro, dose 0.9 mg/L, read-out: inhibition rate against cucumber gray mold): 0%; inhibition at 2.8 µg/mL (cucumber gray mold; [12]): 50%; pest or weed control at 25 µg/mL (cucumber downy mildew; [4]): 0% |
| N#Cc1c(Cl)c(Cl)c(Cl)c(Cl)c1C#N [STM-2] |  |  | 50 | 0 | 0 | 0 |  |  |  |  |  | 0 | 50 | 0 | 0 |  |  |  |  | 70 | pest or weed control at 25 µg/mL (cucumber downy mildew; [4]): 10% |
| N#Cc1c(F)c(Cl)c(Nc2ccc([N+](=O)[O-])cc2)c(C#N)c1F [KC22] | 0 | 0 | 0 | 0 | 0 | 0 | 0 | 0 |  | 0 | 0 | 0 | 0 | 0 | 0 | 0 | 0 | 0 | 0 | 0 |  |
